System: Polygonum convolvulus
Test: Post-emergence action against weeds, greenhouse pot test, visual scoring
Type: in vivo
Details: 11 days after application, 0%=no control, 100%=complete control
Experimental: Seeds or rhizome pieces of monocotyledonous and dicotyledonous weeds were placed in sandy loam in plastic pots, covered with soil and cultivated in a greenhouse under good growth conditions. Three weeks after sowing, the test plants were treated at the 2-4 leaf stage. The compounds according to the invention, formulated as wettable powders or as emulsion concentrates, were sprayed onto the green parts of the plants at various dosages using a water application rate of from 100 to 800 I/ha (converted). After the test plants had been left to stand in the greenhouse for 10 to 28 days under optimum growth conditions, the effect of the preparations was scored visually in comparison to untreated controls.
0%=no control 100%=complete control

sodium salt of 2-iodo-N-[(4-methoxy-6-methyl-1,3,5-triazin-2-yl)carbamoyl]benzenesulfonamide [Compound A-2]
Polygonum convolvulus Control in % (Table 1, 2.5 g of ai/ha): 10% | Polygonum convolvulus Control in % (Table 2, 2.5 g of ai/ha): 20%

CP(=O)(O)CCC(N)C(=O)O (stereo not shown) [Compound B1-8, glufosinate-ammonium]
Polygonum convolvulus Control in % (Table 1, 150 g of ai/ha): 20%

glyphosate-ammonium [Compound B1-15]
Polygonum convolvulus Control in % (Table 2, 360 g of ai/ha): 55%

— patent publication US20100298144A1, “HERBICIDAL COMBINATION” (BAYER CROPSCIENCE AG, priority 2008, published 2010)
